{
  "source": "patent US9289405B2",
  "about": "“Compounds provided with antioxidant activity against free radicals, and pharmaceutical and cosmetic compositions containing them” (GIULIANI S.P.A, priority 2010, dated 2016)",
  "key": {"THP-1 cells": {"system": "THP-1 cells", "experiment": "Modulation of the production of ROS induced by LPS, cytofluorometry with DCFH", "type": "cell-based, human", "conditions": "1 hour treatment, serum-free medium, LPS 0.1 μg/ml, compared with Trolox 100 μM, FIG. 1", "method": "(§1) Two cellular systems were used: NCTC 2544, a line of human keratinocytes, and THP-1, a human promyelocytic line. The results were expressed as mean±standard deviation. Each experiment was repeated at least twice.\nTributyltin (TBT) and lipopolysaccharide (LPS) are used as […] inducers of radical species. The production of ROS was evaluated by cytofluorometry techniques for the THP-1 cell line, using DCFH as stain.\nThe optimum times and concentrations for cytofluorometric measurement of ROS were identified in preliminary experiments.\nThe vitamin E derivative 6-hydroxy-2,5,7,8-tetramethylchroman-2-carboxylic acid (Trolox), at a concentration of 100 μM, was used as positive control.\nThe THP-1 cells were treated for 1 hour with compounds 1 and 2 of the invention at a concentration of 100 μg/ml, with compound 3 at a concentration of 200 μg/ml and with Trolox 100 μM in serum-free medium, loaded in the last 30 minutes with DCFH (10 μM) and then treated in the presence or absence of LPS (0.1 μg/ml) and analysed in the cytofluorometer."}, "NCTC 2544 cells": {"system": "NCTC 2544 cells", "experiment": "Lipid lipoperoxidation induced by TBT, malondialdehyde content via thiobarbituric acid", "type": "cell-based, human", "conditions": "24 hours pre-treatment at maximum tolerated concentration, then TBT 2.5 μM for 24 hours, FIG. 2", "method": "as §1\nLipid peroxidation was evaluated on the NCTC 2544 cells by measuring the content of malondialdehyde, one of the main by-products of lipid peroxidation, through its reactivity with thiobarbituric acid. The results are expressed as absorbance/mg protein. The protein content was evaluated by the Bradford method.\nThe NCTC cells were treated for 24 hours in the presence or in the absence of the maximum tolerated concentration of said compounds 1, 2, 3, and then stimulated with TBT 1-2.5 μM for a further 24 hours.\nTrolox 100 μM was used as positive control."}},
  "note": "Where a name gives a salt, the structure may show the parent alone.",
  "data": [
    {"molecule": "C/C=C/C=C/C=C/C(=O)O", "note": "[compound 1, 2E,4E,6E-octatrienoic acid]", "values": [
      {"measurement": "production of ROS induced by LPS", "setting": "THP-1 cells; compound at 100 μg/ml", "result": "nullifying the production of ROS induced by LPS 0.1 μg/ml to an extent not less than Trolox"},
      {"measurement": "lipoperoxidation induced by TBT (malondialdehyde content)", "setting": "NCTC 2544 cells", "result": "statistically significant (p<0.05) decrease of lipoperoxidation"}
    ]},
    {"molecule": "C/C=C/C=C/C=C/C(=O)[O-].[K+]", "note": "[compound 2, potassium 2E,4E,6E-octatrienoate]", "values": [
      {"measurement": "production of ROS induced by LPS", "setting": "THP-1 cells; compound at 100 μg/ml", "result": "nullifying the production of ROS induced by LPS 0.1 μg/ml to an extent not less than Trolox"},
      {"measurement": "lipoperoxidation induced by TBT (malondialdehyde content)", "setting": "NCTC 2544 cells", "result": "statistically significant (p<0.05) decrease of lipoperoxidation"}
    ]},
    {"molecule": "C/C=C/C=C/C=C/C(=O)O", "note": "[compound 3, 2E,4E,6E-octatrienoic acid, L-lysine salt]", "values": [
      {"measurement": "production of ROS induced by LPS", "setting": "THP-1 cells; compound at 200 μg/ml", "result": "nullifying the production of ROS induced by LPS 0.1 μg/ml to an extent not less than Trolox"}
    ]}
  ]
}
